We go through one molecule from patent US20130309337A1, “PROCESS FOR THE PREPARATION OF PLANT EXTRACTS FOR TREATING SKIN DISORDERS AND ENHANCING HEALING OF WOUNDS” (DEVELOPMENT CENTER FOR BIOTECHNOLOGY, priority 2007, published 2013).

This test concerns STZ-induced diabetic rats. The test can be described thus: Wound closure in STZ-induced diabetic rats (full-thickness dorsal excision wounds, topical application twice a day). Format: in vivo, rat. To be noted: Example 6, Table 1. The protocol:
Rats with a body weight of over 300 g were administered with Streptozotocin (STZ, 65 mg/kg, i.p.) to induce high blood sugar.
• i. The high-blood-sugar animals with a body weight of lower than 300 g were eliminated and the rest were randomized into 6 groups. • ii. The animals were anesthetized with pentobarbital and the hair on the surgical area (dorsal area) was removed. The surgical areas and instruments were then sterilized with 75% alcohol before operation. • iii. The skins on the dorsal medium areas (4, 6 and 8 cm from the midpoint of two scapula) were excised (full thickness) using a round cutting blade with a diameter of 1 cm. Measuring the Wounds, Applying Testing Materials, and Preventing the Wounds from Being Scratched • i. A standard ruler was placed beside the wounds and pictures were taken. • ii. A thin layer of the test materials formulated as ointments and 0.05 ml of CGS21680 solution were applied to each wound. • iii. The wounds were covered with gauze and hoods were worn on the rats' necks.
Test materials were applied to the rats twice a day (morning and evening) and the wounds were measured at each time point.
A standard ruler was placed beside the wounds when pictures were taken. The length of the wounds was standardized according to the scale of the standard ruler in the pictures before the wounds were analyzed with the image processing software Image-Pro (Media Cybernetics, Inc.) to avoid the errors caused by different picturing distances.
The areas of the three wounds on the rats' backs were analyzed by Image-Pro. The wound areas of day zero were the original wound areas. The original wound areas minus the wound areas at different time points were divided by the original wound areas to get the wound closure percentages. The mean of the three wound closure percentages of each rat represents the wound closure of each rat. Four to seven rats per group were used for each test materials. The data was shown as mean±standard error (SEM). The p-values of the test results were calculated by t-test in statistics software sigma statis (Systat software Inc.). P<0.05 means there is a significant difference, and it is marked with * on the statistics charts or tables. P<0.01 means there is a very significant difference, and it is marked with ** on the statistics charts or tables. P<0.001 means there is an extremely significant difference, and it is marked with *** on the statistics charts or tables.
The purpose of this example is to compare the efficacy of the composition of the present invention and that of the commercially available products on wound closures. The wound closure animal experiments were conducted according to Example 5. On day 0, 4, 6, 8, 10 and 12 after the treatments of placebo (Group 1), 1% S1 ointment (Group 2), CGS-21680 (Group 3), Regranex (Group 4), DCB-WH1-C (Group 5) and DCB-WH1-W (Group 6), the wound areas of all experimental groups were measured and the wound closure percentages and CT50 (time required for 50% wound closure) values were calculated.
The purpose of this example is to compare the efficacy of DCB-WH1-W with that of its active ingredients in wound closures. The test materials are placebo (Group 1), 1% S1 ointment (Group 2), 0.25% PA-W4 ointment (Group 3), DCB-WH1-W (Group 4) and 1% PA-W4 ointment (Group 5). The wound closure animal experiments were conducted according to Example 5. On day 0, 4, 9, 11 and 13 after the treatment with the test materials, the wound areas of all experimental groups were measured and the wound closure percentages and CT50 were calculated.

On to `CCNC(=O)[C@H]1O[C@@H](n2cnc3c(N)nc(NCCc4ccc(CCC(=O)O)cc4)nc32)[C@H](O)[C@@H]1O` [CGS-2168, CGS-21680], for which the “CT50 (time required for 50% wound closure)” value was determined as 10.3 days. The “Wound closure percentage (%) Day 4” value (day 4 after treatment, mean ± SEM, topical twice a day) is on record as −21.3 ± 4.8%. Besides, the “Wound closure percentage (%) Day 6” value (day 6, mean ± SEM) was −27.38 ± 3.2%. Further, the “Wound closure percentage (%) Day 8” value (day 8, mean ± SEM) was −2.4 ± 4.1%. Besides, the “Wound closure percentage (%) Day 10” value (day 10, mean ± SEM) is 46.7 ± 6.0%. Besides, the “Wound closure percentage (%) DAY 12” value (day 12, mean ± SEM) is given as 71.7 ± 2.4%.
